Assay results from patent publication US11382946B2, “Multi-functional peptides and use thereof” (NOVACELL TECHNOLOGY INC., priority 2019, dated 2022).
Non-standard residues stand in square brackets, D forms with d. Residues, ends and D or L forms follow the SMILES beside them. *: point of attachment. 2Nal = N[C@@H](Cc1ccc2ccccc2c1)C(=O)O; Nle = CCCC[C@H](N)C(=O)O; Octanoyl = CCCCCCCC(=O)*

Key:
FPR2 = biological target: T1, FPR2 (Homo sapiens, UniProt P25090); experiment: FPR2 activation by intracellular calcium ion increase (Fura-2/AM) in FPR2-RBL cells; format: cell-based; conditions: RBL cells overexpressing FPR2
T1 construct: expressed in transfected cells; host or cells: RBL cells overexpressing FPR2 (FPR2-RBL)
T1 sequence (P25090 1-351): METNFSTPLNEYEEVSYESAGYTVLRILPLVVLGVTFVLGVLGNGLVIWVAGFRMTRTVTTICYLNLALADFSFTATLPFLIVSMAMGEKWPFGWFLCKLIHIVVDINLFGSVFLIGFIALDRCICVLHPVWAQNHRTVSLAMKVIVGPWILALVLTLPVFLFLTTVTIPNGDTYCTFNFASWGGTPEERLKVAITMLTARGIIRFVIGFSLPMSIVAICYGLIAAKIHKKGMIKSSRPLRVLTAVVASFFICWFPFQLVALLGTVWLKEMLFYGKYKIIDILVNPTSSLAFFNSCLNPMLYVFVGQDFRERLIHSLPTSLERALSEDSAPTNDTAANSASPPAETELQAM
Procedure: The present inventors observed a change in calcium ion permeability of the candidate peptides according to an embodiment of the present invention in order to determine whether they can activate the immunomodulatory function in a body or not. Particularly, intracellular concentration of calcium ions was measured to confirm that the peptide activates FPR2. RBL cells that do neither express FPR1 nor FPR2, RBL cells overexpressed FPR1 (FPR1-RBL) and RBL cells that overexpressed FPR2 (FPR2-RBL) were used and Fura-2/AM which is a fluorophore having high binding affinity to calcium in order to measure intracellular calcium ion level sensitively. For this purpose, cells were cultured in RPMI medium supplemented with 10% fetal bovine serum and harvested by centrifugation in log phase (mid-log phase, 1-3×10^7 cells/ml), and then washed several times with RPMI medium not supplemented with fetal bovine serum, and then the cells were resuspended in RPMI medium to 1×10^7 cells/ml. Subsequently, a final 3 μM concentration of Fura-2/AM was added and the cells were incubated for 45 minutes in a 37° C., 5% CO2 incubator. After the appropriated time, the cells are harvested, washed again with RPMI medium, and then suspended in the appropriate amount of RPMI medium supplemented with 250 μM of sulfinpyrazone, in order to prevent loss of Fura-2 entering the cells. About 2×10^6 cells were taken each time, harvested by rapid centrifugation, and resuspended in 1 ml of a Locke solution without addition of calcium ions and EGTA added, and the ratio of absorbance at two wavelengths of 340 nm and 380 nm on a spectrophotometer were monitored by treating the peptides according to an embodiment of the present invention at different concentrations (1 μM, 0.1 μM, and 0.01 μM) at intervals of about 1 minute, and then the difference in absorbance at two wavelengths was investigated. It was converted to the concentration of free calcium ions into cells according to the method of Grynkiewicz.

S. aureus = format: cell-based, Staphylococcus aureus; conditions: 18 h
Procedure: (§1) The present inventors evaluated […] in order to select peptides showing excellent performance among various peptides synthesized in the Example 1. Particularly, in order to measure the antimicrobial activity of the peptide, after preparing Gram-positive bacteria Staphylococcus aureus (S. aureus) and Gram-negative bacteria Pseudomonas aeruginosa (P. aeruginosa), the bacteria were plated on agar plate medium by fourth streaking and cultured overnight in a 36° C. incubator. The next day, the strain colonies produced on the agar plate medium were inoculated into 3 ml nutrient medium and cultured overnight in a stirring incubator at 36° C. and 220 rpm. The next day, the bacteria were diluted to measure absorbance at 600 nm, adjusted to OD600=0.5, and diluted in a 1:100 ratio in nutrient medium. Then, the peptides prepared in the above Examples were serially diluted in concentrations of 0, 1.25, 2.5, 5, 10, and 20 μM in a nutrient medium to prepare 1 ml each, and then inoculated with 1 ml of the diluted bacteria. Subsequently, the mixture was stirred under conditions of 36° C. and 220 rpm, and incubated for 18 hours, and absorbance at 600 nm was measured.
(§2) As a result, 20 peptides showing high antibacterial activity against P. aeruginosa and S. aureus) were selected (FIGS. 2 and 3).

P. aeruginosa = format: cell-based, Pseudomonas aeruginosa; conditions: 18 h
Procedure: as §1, §2

| EC50 (FPR2) [µM] | Antimicrobial activity (IC50, μg/ml) S. aureus (S. aureus) [µg/mL] | Antimicrobial activity (IC50, μg/ml) P. aeruginosa (P. aeruginosa) [µg/mL] | SMILES |
| --- | --- | --- | --- |
| 0.107 | 15.2 |  | CCCCCCCC(=O)N[C@@H](CCCCN)C(=O)N[C@@H](Cc1ccccc1)C(=O)N[C@@H](CCCCN)C(=O)N[C@@H](Cc1c[nH]c2ccccc12)C(=O)N[C@@H](CCCC)C(=O)N[C@@H](Cc1ccc(O)cc1)C(=O)N[C@H](CCSC)C(N)=O [Peptide V3, Oct-KFKW-Nle-Ym-NH2] (Octanoyl-KFKW[Nle]Y[dM]-NH2) |
| 0.064 | 5.1 |  | CCCCCCCC(=O)N[C@@H](CCCCN)C(=O)N[C@@H](Cc1c[nH]c2ccccc12)C(=O)N[C@@H](CCCCN)C(=O)N[C@@H](Cc1c[nH]c2ccccc12)C(=O)N[C@@H](CCCC)C(=O)N[C@@H](Cc1ccc(O)cc1)C(=O)N[C@H](CCSC)C(N)=O [Peptide V4, Oct-KWKW-Nle-Ym-NH2] (Octanoyl-KWKW[Nle]Y[dM]-NH2) |
| 0.0415 | 2.0 | >50 | CCCCCCCC(=O)N[C@@H](CCCNC(=N)N)C(=O)N[C@@H](Cc1c[nH]c2ccccc12)C(=O)N[C@@H](CCCNC(=N)N)C(=O)N[C@@H](Cc1c[nH]c2ccccc12)C(=O)N[C@@H](CCCC)C(=O)N[C@@H](Cc1ccc(O)cc1)C(=O)N[C@H](CCSC)C(N)=O [Peptide V5, Oct-RWRW-Nle-Ym-NH2] (Octanoyl-RWRW[Nle]Y[dM]-NH2) |
| 0.0042 | >50 |  | CCCCCCCC(=O)N[C@@H](CCCCN)C(=O)N[C@@H](Cc1ccccc1)C(=O)N[C@@H](CCCCN)C(=O)N[C@@H](Cc1c[nH]c2ccccc12)C(=O)N[C@@H](CCCNC(=N)N)C(=O)N[C@@H](Cc1ccc(O)cc1)C(=O)N[C@@H](CCSC)C(=O)N[C@H](C(=O)N[C@H](CCSC)C(N)=O)C(C)C [Peptide V6, Oct-KFKWRYMVm-NH2] (Octanoyl-KFKWRYMV[dM]-NH2) |
| 0.0064 | 13.0 | 24.4 | CCCCCCCC(=O)N[C@@H](CCCNC(=N)N)C(=O)N[C@@H](Cc1c[nH]c2ccccc12)C(=O)N[C@@H](CCCNC(=N)N)C(=O)N[C@@H](Cc1c[nH]c2ccccc12)C(=O)N[C@@H](CCCNC(=N)N)C(=O)N[C@@H](Cc1ccc(O)cc1)C(=O)N[C@@H](CCSC)C(=O)N[C@H](C(=O)N[C@H](CCSC)C(N)=O)C(C)C [Peptide V8, Oct-RWRWRYMVm-NH2] (Octanoyl-RWRWRYMV[dM]-NH2) |
| 0.0047 | 12.7 |  | CCCCCCCC(=O)N[C@@H](CCCNC(=N)N)C(=O)N[C@@H](Cc1c[nH]c2ccccc12)C(=O)N[C@@H](CCCNC(=N)N)C(=O)N[C@@H](Cc1c[nH]c2ccccc12)C(=O)N[C@@H](CCCNC(=N)N)C(=O)N[C@@H](Cc1c[nH]c2ccccc12)C(=O)N[C@@H](CCSC)C(=O)N[C@H](C(=O)N[C@H](CCSC)C(N)=O)C(C)C [Peptide V9, Oct-RWRWRWMVm-NH2] (Octanoyl-RWRWRWMV[dM]-NH2) |
|  | 2.7 | 7.3 | CCCCCCCC(=O)N[C@@H](CCCNC(=N)N)C(=O)N[C@@H](Cc1c[nH]c2ccccc12)C(=O)N[C@@H](CCCNC(=N)N)C(=O)N[C@@H](Cc1c[nH]c2ccccc12)C(=O)N[C@@H](Cc1ccc2ccccc2c1)C(=O)N[C@@H](Cc1c[nH]c2ccccc12)C(N)=O [Peptide V16, Oct-RWRWZW-NH2] (Octanoyl-RWRW[2Nal]W-NH2) |
|  | 30.2 | 4.3 | N=C(N)NCCC[C@H](NC(=O)[C@H](Cc1c[nH]c2ccccc12)NC(=O)[C@@H](N)CCCNC(=N)N)C(=O)N[C@@H](Cc1c[nH]c2ccccc12)C(=O)N[C@@H](Cc1ccc2ccccc2c1)C(=O)N[C@@H](Cc1c[nH]c2ccccc12)C(N)=O [Peptide V16_0, RWRWZW-NH2] (H-RWRW[2Nal]W-NH2) |
| 0.0628 | 2.3 | 16.2 | CCCCCCCC(=O)N[C@@H](CCCNC(=N)N)C(=O)N[C@@H](Cc1c[nH]c2ccccc12)C(=O)N[C@@H](CCCNC(=N)N)C(=O)N[C@@H](Cc1c[nH]c2ccccc12)C(=O)N[C@@H](Cc1ccc2ccccc2c1)C(=O)N[C@@H](Cc1c[nH]c2ccccc12)C(=O)N[C@H](CCSC)C(N)=O [Peptide V18, Oct-RWRWZWm-NH2] (Octanoyl-RWRW[2Nal]W[dM]-NH2) |
| 0.01 | 6.8 | 21.1 | CSCC[C@@H](NC(=O)[C@H](Cc1c[nH]c2ccccc12)NC(=O)[C@H](Cc1ccc2ccccc2c1)NC(=O)[C@H](Cc1c[nH]c2ccccc12)NC(=O)[C@H](CCCNC(=N)N)NC(=O)[C@H](Cc1c[nH]c2ccccc12)NC(=O)[C@@H](N)CCCNC(=N)N)C(N)=O [Peptide V18_0, RWRWZWm-NH2] (H-RWRW[2Nal]W[dM]-NH2) |
| 0.0694 | 5.4 | >50 | CSCC[C@@H](NC(=O)[C@H](Cc1c[nH]c2ccccc12)NC(=O)[C@H](CCCNC(=N)N)NC(=O)[C@H](Cc1c[nH]c2ccccc12)NC(=O)[C@H](Cc1c[nH]c2ccccc12)NC(=O)[C@H](CCCNC(=N)N)NC(=O)[C@H](Cc1ccc2ccccc2c1)NC(C)=O)C(N)=O [Peptide V19_Ac, Ac-ZRWWRWm-NH2] (Ac-[2Nal]RWWRW[dM]-NH2) |
| 0.0453 | >50 | >50 | CCCC[C@H](NC(=O)[C@H](Cc1c[nH]c2ccccc12)NC(=O)[C@H](Cc1c[nH]c2ccccc12)NC(=O)[C@H](CCCNC(=N)N)NC(=O)[C@H](Cc1ccc2ccccc2c1)NC(C)=O)C(=O)N[C@@H](Cc1c[nH]c2ccccc12)C(=O)N[C@H](CCSC)C(N)=O [Peptide V20_Ac, Ac-ZRWW-Nle-Wm-NH2] (Ac-[2Nal]RWW[Nle]W[dM]-NH2) |
| 0.0923 | 9.4 | >50 | CSCC[C@@H](NC(=O)[C@@H](NC(=O)[C@H](CCCNC(=N)N)NC(=O)[C@H](Cc1c[nH]c2ccccc12)NC(=O)[C@H](Cc1c[nH]c2ccccc12)NC(=O)[C@H](CCCNC(=N)N)NC(=O)[C@H](Cc1ccc2ccccc2c1)NC(C)=O)C(C)C)C(N)=O [Peptide V21_Ac, Ac-ZRWWRVm-NH2] (Ac-[2Nal]RWWRV[dM]-NH2) |
| 0.0162 | 13.6 | >50 | CSCC[C@@H](NC(=O)[C@H](Cc1c[nH]c2ccccc12)NC(=O)[C@H](CCCNC(=N)N)NC(=O)[C@H](Cc1c[nH]c2ccccc12)NC(=O)[C@H](Cc1c[nH]c2ccccc12)NC(=O)[C@@H](NC(=O)[C@H](CCCNC(=N)N)NC(=O)[C@H](Cc1c[nH]c2ccccc12)NC(=O)[C@H](Cc1c[nH]c2ccccc12)NC(=O)[C@H](CCCNC(=N)N)NC(=O)[C@H](Cc1ccc2ccccc2c1)NC(C)=O)C(C)C)C(N)=O [Peptide V22_Ac, Ac-ZRWWRVWWRWm-NH2] (Ac-[2Nal]RWWRVWWRW[dM]-NH2) |
